{
  "source": "patent US20250082648A1",
  "about": "“COMPOSITIONS AND METHODS FOR ENHANCING KRAS INHIBITOR OR SHP2 INHIBITOR EFFICACY” (New York University, priority 2023, published 2025)",
  "tested_on": "H23 cells",
  "assay": "CRISPR/Cas9 synthetic lethal screen with TNO155 alone",
  "assay_type": "cell-based, human",
  "data": [
    {"smiles": "C[C@@H]1OCC2(CCN(c3cnc(Sc4ccnc(N)c4Cl)c(N)n3)CC2)[C@@H]1N", "note": "[TNO155]", "values": [
      {"measurement": "neg|lfc", "setting": "knockout gene AP2M1", "result": "−1.5896"},
      {"measurement": "neg|lfc", "setting": "knockout gene ATP6V0C", "result": "−2.4937"},
      {"measurement": "neg|lfc", "setting": "knockout gene ATP6V1F", "result": "−1.3822"},
      {"measurement": "neg|lfc", "setting": "knockout gene ATP6V1H", "result": "−1.2922"},
      {"measurement": "neg|lfc", "setting": "knockout gene BUB1", "result": "−1.3761"},
      {"measurement": "neg|lfc", "setting": "knockout gene C7orf26", "result": "−1.2403"},
      {"measurement": "neg|lfc", "setting": "knockout gene C12orf45", "result": "−0.8919"},
      {"measurement": "neg|lfc", "setting": "knockout gene C18orf21", "result": "−1.7774"},
      {"measurement": "neg|lfc", "setting": "knockout gene CAPZA1", "result": "−0.8323"},
      {"measurement": "neg|lfc", "setting": "knockout gene CARD10", "result": "−0.8745"},
      {"measurement": "neg|lfc", "setting": "knockout gene CD3EAP", "result": "−0.9138"},
      {"measurement": "neg|lfc", "setting": "knockout gene CENPM", "result": "−2.7542"},
      {"measurement": "neg|lfc", "setting": "knockout gene CFDP1", "result": "−1.4115"},
      {"measurement": "neg|lfc", "setting": "knockout gene COQ6", "result": "−0.9015"},
      {"measurement": "neg|lfc", "setting": "knockout gene COX6B1", "result": "−1.1999"},
      {"measurement": "neg|lfc", "setting": "knockout gene CS", "result": "−0.9482"},
      {"measurement": "neg|lfc", "setting": "knockout gene DCST2", "result": "−1.3843"},
      {"measurement": "neg|lfc", "setting": "knockout gene DDX52", "result": "−1.2486"},
      {"measurement": "neg|lfc", "setting": "knockout gene DENR", "result": "−1.046"},
      {"measurement": "neg|lfc", "setting": "knockout gene DHPS", "result": "−1.8131"},
      {"measurement": "neg|lfc", "setting": "knockout gene DPM3", "result": "−0.9381"},
      {"measurement": "neg|lfc", "setting": "knockout gene EGLN1", "result": "−1.2972"},
      {"measurement": "neg|lfc", "setting": "knockout gene ELP2", "result": "−0.9643"},
      {"measurement": "neg|lfc", "setting": "knockout gene EXOSC2", "result": "−2.2014"},
      {"measurement": "neg|lfc", "setting": "knockout gene FASTKD5", "result": "−1.4304"},
      {"measurement": "neg|lfc", "setting": "knockout gene FBL", "result": "−2.1994"},
      {"measurement": "neg|lfc", "setting": "knockout gene FXN", "result": "−2.3715"},
      {"measurement": "neg|lfc", "setting": "knockout gene G6PD", "result": "−2.0605"},
      {"measurement": "neg|lfc", "setting": "knockout gene GATA5", "result": "−0.7392"},
      {"measurement": "neg|lfc", "setting": "knockout gene GMPS", "result": "−1.5348"},
      {"measurement": "neg|lfc", "setting": "knockout gene GNB2L1", "result": "−1.4387"},
      {"measurement": "neg|lfc", "setting": "knockout gene GTF2H3", "result": "−0.8448"},
      {"measurement": "neg|lfc", "setting": "knockout gene GTF3C1", "result": "−1.8687"},
      {"measurement": "neg|lfc", "setting": "knockout gene HARS2", "result": "−1.9989"},
      {"measurement": "neg|lfc", "setting": "knockout gene HIRA", "result": "−1.0969"},
      {"measurement": "neg|lfc", "setting": "knockout gene HSPA13", "result": "−1.2857"},
      {"measurement": "neg|lfc", "setting": "knockout gene IPO9", "result": "−1.5514"},
      {"measurement": "neg|lfc", "setting": "knockout gene KIAA1324", "result": "−0.9092"},
      {"measurement": "neg|lfc", "setting": "knockout gene KREMEN2", "result": "−1.0026"},
      {"measurement": "neg|lfc", "setting": "knockout gene LARS", "result": "−2.0903"},
      {"measurement": "neg|lfc", "setting": "knockout gene LEMD2", "result": "−1.7855"},
      {"measurement": "neg|lfc", "setting": "knockout gene LIAS", "result": "−1.7787"},
      {"measurement": "neg|lfc", "setting": "knockout gene LRPPRC", "result": "−1.3022"},
      {"measurement": "neg|lfc", "setting": "knockout gene MCAT", "result": "−1.6999"},
      {"measurement": "neg|lfc", "setting": "knockout gene MMGT1", "result": "−1.1768"},
      {"measurement": "neg|lfc", "setting": "knockout gene MPHOSPH10", "result": "−1.2081"},
      {"measurement": "neg|lfc", "setting": "knockout gene MRPL2", "result": "−1.5188"},
      {"measurement": "neg|lfc", "setting": "knockout gene MRPS11", "result": "−2.1012"},
      {"measurement": "neg|lfc", "setting": "knockout gene MRPS14", "result": "−2.7074"},
      {"measurement": "neg|lfc", "setting": "knockout gene MTERFD1", "result": "−0.8478"},
      {"measurement": "neg|lfc", "setting": "knockout gene MTFMT", "result": "−1.4999"},
      {"measurement": "neg|lfc", "setting": "knockout gene MVD", "result": "−2.2878"},
      {"measurement": "neg|lfc", "setting": "knockout gene NDUFAF4", "result": "−2.8677"},
      {"measurement": "neg|lfc", "setting": "knockout gene NDUFS2", "result": "−1.6602"},
      {"measurement": "neg|lfc", "setting": "knockout gene NGDN", "result": "−1.6157"},
      {"measurement": "neg|lfc", "setting": "knockout gene NHP2", "result": "−2.4304"},
      {"measurement": "neg|lfc", "setting": "knockout gene NUP50", "result": "−1.7194"},
      {"measurement": "neg|lfc", "setting": "knockout gene OXA1L", "result": "−1.0359"},
      {"measurement": "neg|lfc", "setting": "knockout gene PAXIP1", "result": "−1.2046"},
      {"measurement": "neg|lfc", "setting": "knockout gene PELO", "result": "−1.8232"},
      {"measurement": "neg|lfc", "setting": "knockout gene PFDN2", "result": "−1.6271"},
      {"measurement": "neg|lfc", "setting": "knockout gene PHB", "result": "−0.6638"},
      {"measurement": "neg|lfc", "setting": "knockout gene PHF6", "result": "−0.9513"},
      {"measurement": "neg|lfc", "setting": "knockout gene PIGM", "result": "−0.9761"},
      {"measurement": "neg|lfc", "setting": "knockout gene PIK3C3", "result": "−1.3101"},
      {"measurement": "neg|lfc", "setting": "knockout gene PKN2", "result": "−1.323"},
      {"measurement": "neg|lfc", "setting": "knockout gene PLEC", "result": "−0.9261"},
      {"measurement": "neg|lfc", "setting": "knockout gene POLR3C", "result": "−2.1096"},
      {"measurement": "neg|lfc", "setting": "knockout gene PRMT1", "result": "−2.4486"},
      {"measurement": "neg|lfc", "setting": "knockout gene PTCD3", "result": "−1.5106"},
      {"measurement": "neg|lfc", "setting": "knockout gene RABGGTA", "result": "−1.5175"},
      {"measurement": "neg|lfc", "setting": "knockout gene RBFA", "result": "−1.2488"},
      {"measurement": "neg|lfc", "setting": "knockout gene RBM15", "result": "−0.9128"},
      {"measurement": "neg|lfc", "setting": "knockout gene RMND1", "result": "−2.1857"},
      {"measurement": "neg|lfc", "setting": "knockout gene RNGTT", "result": "−1.4545"},
      {"measurement": "neg|lfc", "setting": "knockout gene RNMTL1", "result": "−1.8816"},
      {"measurement": "neg|lfc", "setting": "knockout gene RPF2", "result": "−1.6299"},
      {"measurement": "neg|lfc", "setting": "knockout gene RPS2", "result": "−1.4859"},
      {"measurement": "neg|lfc", "setting": "knockout gene RRP36", "result": "−1.7306"},
      {"measurement": "neg|lfc", "setting": "knockout gene RSBN1", "result": "−1.1801"},
      {"measurement": "neg|lfc", "setting": "knockout gene SDHB", "result": "−1.352"},
      {"measurement": "neg|lfc", "setting": "knockout gene SDHC", "result": "−1.0873"},
      {"measurement": "neg|lfc", "setting": "knockout gene SLC30A9", "result": "−0.8169"},
      {"measurement": "neg|lfc", "setting": "knockout gene SMNDC1", "result": "−1.605"},
      {"measurement": "neg|lfc", "setting": "knockout gene SNRPA", "result": "−0.853"},
      {"measurement": "neg|lfc", "setting": "knockout gene SORT1", "result": "−0.7919"},
      {"measurement": "neg|lfc", "setting": "knockout gene SS18L2", "result": "−1.8054"},
      {"measurement": "neg|lfc", "setting": "knockout gene SYS1", "result": "−1.4135"},
      {"measurement": "neg|lfc", "setting": "knockout gene TAF2", "result": "−1.6548"},
      {"measurement": "neg|lfc", "setting": "knockout gene TAMM41", "result": "−1.389"},
      {"measurement": "neg|lfc", "setting": "knockout gene TEX10", "result": "−1.2531"},
      {"measurement": "neg|lfc", "setting": "knockout gene TFRC", "result": "−0.7641"},
      {"measurement": "neg|lfc", "setting": "knockout gene TRAPPC3", "result": "−1.2908"},
      {"measurement": "neg|lfc", "setting": "knockout gene TRAPPC11", "result": "−1.3146"},
      {"measurement": "neg|lfc", "setting": "knockout gene TRMT6", "result": "−1.3112"},
      {"measurement": "neg|lfc", "setting": "knockout gene TSC2", "result": "−1.2936"},
      {"measurement": "neg|lfc", "setting": "knockout gene VMP1", "result": "−2.2825"},
      {"measurement": "neg|lfc", "setting": "knockout gene XRCC3", "result": "−1.7596"},
      {"measurement": "neg|lfc", "setting": "knockout gene YARS", "result": "−2.5691"},
      {"measurement": "neg|lfc", "setting": "knockout gene YKT6", "result": "−1.2993"}
    ]}
  ]
}
